In US10065928B2, “Quinolinone compound and use thereof” (Sunshine Lake Pharma Co., Ltd., priority 2014, dated 2018):

Key:
[1] = Pharmacokinetic assay in male SD rats (iv and oral); type: in vivo; details: for F: po 5 mg/kg vs iv 1 mg/kg; for AUC(0-t) / Cmax / Tmax / clearance / half-life / Vd: rat, plasma; for Vd: read-out: Vss
Experimental: Preparation of test compound solutions: the test compound solution was prepared for oral and intravenous administration by using 5% DMSO, 5% Solutol HS 15 and 90% normal saline.
Male SD rats weighing 190-250 g were randomly divided into two groups, and each group had three rats; one group was administered with test compound at a dose of 1.0 mg/kg by intravenous injection, the other group was administered with test compound at a dose of 5.0 mg/kg by oral. After administering, blood samples were collected at time points of 0.0833, 0.25, 0.5, 1.0, 2.0, 4.0, 7.0 and 24 h. Standard curve was plotted based on concentrations of the samples in a suitable range, and the concentrations of test compounds in plasma samples were determined by using AB SCIEX API4000 LC-MS/MS in MRM mode. Pharmacokinetic parameters were calculated according to drug concentration−time curve using a noncompartmental method with WinNonLin 6.3 software.

[2] = test system: erythropoietin (EPO) production in Hep3B cells; assay: Activity in inducing erythropoietin (EPO) production in vitro, Hep3B cells, EPO ELISA; type: cell-based; details: Homo sapiens, 24 h, EPO in supernatant by ELISA
Experimental: The activities of compounds of the invention in inducing erythropoietin (EPO) production were assessed by using human live cancer cell strain Hep3B (ATCC: American type culture collection, Manassas, Va.). Hep3B cells seeded in a 96-well plate with a density of 2.5×10^4 cells/well were cultivated overnight in DMEM culture medium (Dulbecco's Modified Eagle's Medium) at 37° C. in the presence of 10% fetal bovine serum (FBS). The next day, the supernatant liquid of culture medium was abandoned by suction, and to the residue was added fresh DMEM (containing 0.5% DMSO, 0.5% FBS) containing compound of the invention with a series of concentrations (0.31160.00 μM) or containing solvent used for comparison. The cells were cultivated at 37° C. for 24 h. The supernatant liquid was collected and the EPO concentration of the supernatant was quantified by using human EPO ELISA kit (Abcam). The activity of each compound in inducing erythropoietin (EPO) production was represented by half maximal effective concentration (EC50).

Compound: Cn1c(=O)c(C(=O)NCC(=O)O)c(O)c2ccc(Oc3cc(Cl)ccc3F)cc21 [Example 22, 2-(7-(5-chloro-2-fluorophenoxy)-4-hydroxy-1-methyl-2-oxo-1,2-dihydroquinoline-3-carboxamido)acetic acid]
- F [1]: 108.6%
- AUC(0-t) ([1]; iv, 1 mg/kg): 10800 ng·h/mL
- Cmax ([1]; iv, 1 mg/kg): 10100 ng/mL
- Tmax ([1]; iv, 1 mg/kg): 4.98 min
- clearance ([1]; iv, 1 mg/kg): 1.56 mL/min/kg
- half-life ([1]; iv, 1 mg/kg): 57.5 min
- Vd ([1]; iv, 1 mg/kg): 0.146 L/kg
- AUC(0-t) ([1]; po, 5 mg/kg): 58700 ng·h/mL
- Cmax ([1]; po, 5 mg/kg): 10700 ng/mL
- Tmax ([1]; po, 5 mg/kg): 50 min
- half-life ([1]; po, 5 mg/kg): 167 min
- EC50 [2]: 4.18 µM

Compound: Cn1c(=O)c(C(=O)NCC(=O)O)c(O)c2ccc(Oc3ccc(F)cc3)cc21 [Example 47, 2-(7-(4-fluorophenoxy)-4-hydroxy-1-methyl-2-oxo-1,2-dihydroquinoline-3-carboxamido)acetic acid]
- F [1]: 90.7%
- AUC(0-t) ([1]; iv, 1 mg/kg): 10200 ng·h/mL
- Cmax ([1]; iv, 1 mg/kg): 6400 ng/mL
- Tmax ([1]; iv, 1 mg/kg): 4.98 min
- clearance ([1]; iv, 1 mg/kg): 1.66 mL/min/kg
- half-life ([1]; iv, 1 mg/kg): 63.6 min
- Vd ([1]; iv, 1 mg/kg): 0.144 L/kg
- AUC(0-t) ([1]; po, 5 mg/kg): 46200 ng·h/mL
- Cmax ([1]; po, 5 mg/kg): 11500 ng/mL
- Tmax ([1]; po, 5 mg/kg): 30 min
- half-life ([1]; po, 5 mg/kg): 158 min
- EC50 [2]: 3.92 µM

Compound: Cn1c(=O)c(C(=O)NCC(=O)O)c(O)c2ccc(Oc3ccccc3)cc21 [Example 1, 2-(4-hydroxy-1-methyl-2-oxo-7-phenoxy-1,2-dihydroquinoline-3-carboxamido)acetic acid]
- F [1]: 81.5%
- AUC(0-t) ([1]; iv, 1 mg/kg): 9340 ng·h/mL
- Cmax ([1]; iv, 1 mg/kg): 8910 ng/mL
- Tmax ([1]; iv, 1 mg/kg): 4.98 min
- clearance ([1]; iv, 1 mg/kg): 1.77 mL/min/kg
- half-life ([1]; iv, 1 mg/kg): 467 min
- Vd ([1]; iv, 1 mg/kg): 0.234 L/kg
- AUC(0-t) ([1]; po, 5 mg/kg): 38400 ng·h/mL
- Cmax ([1]; po, 5 mg/kg): 18400 ng/mL
- Tmax ([1]; po, 5 mg/kg): 40 min
- half-life ([1]; po, 5 mg/kg): 252 min
- EC50 [2]: 5.35 µM

Compound: Cn1c(=O)c(C(=O)NCC(=O)O)c(O)c2ccc(Oc3cc(F)ccc3F)cc21 [Example 19, 2-(7-(2,5-difluorophenoxy)-4-hydroxy-1-methyl-2-oxo-1,2-dihydroquinoline-3-carboxamido)acetic acid]
- F [1]: 98.7%
- AUC(0-t) ([1]; iv, 1 mg/kg): 8260 ng·h/mL
- Cmax ([1]; iv, 1 mg/kg): 6080 ng/mL
- Tmax ([1]; iv, 1 mg/kg): 4.98 min
- clearance ([1]; iv, 1 mg/kg): 2.06 mL/min/kg
- half-life ([1]; iv, 1 mg/kg): 65.4 min
- Vd ([1]; iv, 1 mg/kg): 0.164 L/kg
- AUC(0-t) ([1]; po, 5 mg/kg): 41000 ng·h/mL
- Cmax ([1]; po, 5 mg/kg): 9560 ng/mL
- Tmax ([1]; po, 5 mg/kg): 30 min
- half-life ([1]; po, 5 mg/kg): 84 min
- EC50 [2]: 2.26 µM

Compound: Cn1c(=O)c(C(=O)NCC(=O)O)c(O)c2ccc(Oc3ccc(Cl)cc3)cc21 [Example 13, 2-(7-(4-chlorophenoxy)-4-hydroxy-1-methyl-2-oxo-1,2-dihydroquinoline-3-carboxamido)acetic acid]
- F [1]: 94.6%
- AUC(0-t) ([1]; iv, 1 mg/kg): 13100 ng·h/mL
- Cmax ([1]; iv, 1 mg/kg): 8480 ng/mL
- Tmax ([1]; iv, 1 mg/kg): 4.98 min
- clearance ([1]; iv, 1 mg/kg): 1.32 mL/min/kg
- half-life ([1]; iv, 1 mg/kg): 57.5 min
- Vd ([1]; iv, 1 mg/kg): 0.107 L/kg
- AUC(0-t) ([1]; po, 5 mg/kg): 57000 ng·h/mL
- Cmax ([1]; po, 5 mg/kg): 12300 ng/mL
- Tmax ([1]; po, 5 mg/kg): 70.2 min
- half-life ([1]; po, 5 mg/kg): 254 min
- EC50 [2]: 7.1 µM

Compound: Cn1c(=O)c(C(=O)NCC(=O)O)c(O)c2ccc(Oc3ccc(F)cc3Cl)cc21 [Example 28, 2-(7-(2-chloro-4-fluorophenoxy)-4-hydroxy-1-methyl-2-oxo-1,2-dihydroquinoline-3-carboxamido)acetic acid]
- F [1]: 107.8%
- AUC(0-t) ([1]; iv, 1 mg/kg): 6200 ng·h/mL
- Cmax ([1]; iv, 1 mg/kg): 4170 ng/mL
- Tmax ([1]; iv, 1 mg/kg): 4.98 min
- clearance ([1]; iv, 1 mg/kg): 2.67 mL/min/kg
- half-life ([1]; iv, 1 mg/kg): 59.4 min
- Vd ([1]; iv, 1 mg/kg): 0.217 L/kg
- AUC(0-t) ([1]; po, 5 mg/kg): 33300 ng·h/mL
- Cmax ([1]; po, 5 mg/kg): 11700 ng/mL
- Tmax ([1]; po, 5 mg/kg): 55 min
- half-life ([1]; po, 5 mg/kg): 106 min
- EC50 [2]: 1.51 µM

Compound: O=C(O)CNC(=O)c1c(O)c2ccc(Oc3ccccc3)cc2n(CC2CC2)c1=O [Example 2, 2-(1-(cyclopropylmethyl)-4-hydroxy-2-oxo-7-phenoxy-1,2-dihydroquinoline-3-carboxamido)acetic acid]
- F [1]: 100.4%
- AUC(0-t) ([1]; iv, 1 mg/kg): 20200 ng·h/mL
- Cmax ([1]; iv, 1 mg/kg): 7190 ng/mL
- Tmax ([1]; iv, 1 mg/kg): 13.3 min
- clearance ([1]; iv, 1 mg/kg): 0.833 mL/min/kg
- half-life ([1]; iv, 1 mg/kg): 224 min
- Vd ([1]; iv, 1 mg/kg): 0.159 L/kg
- AUC(0-t) ([1]; po, 5 mg/kg): 101000 ng·h/mL
- Cmax ([1]; po, 5 mg/kg): 13200 ng/mL
- Tmax ([1]; po, 5 mg/kg): 130 min
- half-life ([1]; po, 5 mg/kg): 239 min
- EC50 [2]: 5 µM

Compound: Cn1c(=O)c(C(=O)NCC(=O)O)c(O)c2ccc(Oc3cccc(F)c3Cl)cc21 [Example 24, 2-(7-(2-chloro-3-fluorophenoxy)-4-hydroxy-1-methyl-2-oxo-1,2-dihydroquinoline-3-carboxamido)acetic acid]
- EC50 [2]: 9.53 µM
